How the values were obtained:
PPARγ/RXR = molecular target: T1, PPARγ/RXR (Homo sapiens, UniProt P37231); test: CD36-luc luciferase reporter assay, PPARγ/RXR co-transfected into CV-1 cells; type: cell-based; settings: 24 h
T1 construct: expressed in transfected cells; host or cells: CV-1
T1 sequence (P37231 29-505 limits assumed): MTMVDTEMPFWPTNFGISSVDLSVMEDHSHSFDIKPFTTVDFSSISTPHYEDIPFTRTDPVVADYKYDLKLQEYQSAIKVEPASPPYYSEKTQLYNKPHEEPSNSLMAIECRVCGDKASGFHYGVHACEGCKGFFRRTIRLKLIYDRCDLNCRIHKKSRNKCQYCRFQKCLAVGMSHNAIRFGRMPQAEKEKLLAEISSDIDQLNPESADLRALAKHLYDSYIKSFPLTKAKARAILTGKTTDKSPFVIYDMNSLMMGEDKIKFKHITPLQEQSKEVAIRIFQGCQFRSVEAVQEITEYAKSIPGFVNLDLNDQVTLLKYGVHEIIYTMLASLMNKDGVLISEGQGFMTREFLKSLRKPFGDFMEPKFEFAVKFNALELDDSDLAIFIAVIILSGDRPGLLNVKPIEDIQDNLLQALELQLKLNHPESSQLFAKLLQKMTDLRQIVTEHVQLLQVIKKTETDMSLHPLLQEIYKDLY
T1 sequence (P19793 1-462 partner): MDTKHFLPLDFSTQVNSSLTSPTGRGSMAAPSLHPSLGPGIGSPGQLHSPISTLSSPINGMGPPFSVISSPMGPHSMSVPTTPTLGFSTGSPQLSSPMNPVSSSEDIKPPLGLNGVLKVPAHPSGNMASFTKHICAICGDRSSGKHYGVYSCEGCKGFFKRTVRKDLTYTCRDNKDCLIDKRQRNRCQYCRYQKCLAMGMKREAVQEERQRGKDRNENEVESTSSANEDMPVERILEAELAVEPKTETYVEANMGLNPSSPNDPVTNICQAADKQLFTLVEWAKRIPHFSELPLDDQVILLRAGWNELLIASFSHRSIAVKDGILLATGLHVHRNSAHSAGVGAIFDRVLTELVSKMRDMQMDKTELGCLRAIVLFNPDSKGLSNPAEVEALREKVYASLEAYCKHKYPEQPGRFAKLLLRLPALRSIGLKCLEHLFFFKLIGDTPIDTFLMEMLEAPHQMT

TR4 [1] = molecular target: T2, TR4 (Homo sapiens, UniProt P49116); test: CD36-luc luciferase reporter assay, TR4 co-transfected into CV-1 cells; type: cell-based; set-up: pCMX-TR4 plasmids consist of the full length human TR4 gene subcloned into pCMX vector; expressed in transfected cells; host or cells: CV-1; settings: 24 h
T2 sequence (P49116 1-615 isoform P49116-2): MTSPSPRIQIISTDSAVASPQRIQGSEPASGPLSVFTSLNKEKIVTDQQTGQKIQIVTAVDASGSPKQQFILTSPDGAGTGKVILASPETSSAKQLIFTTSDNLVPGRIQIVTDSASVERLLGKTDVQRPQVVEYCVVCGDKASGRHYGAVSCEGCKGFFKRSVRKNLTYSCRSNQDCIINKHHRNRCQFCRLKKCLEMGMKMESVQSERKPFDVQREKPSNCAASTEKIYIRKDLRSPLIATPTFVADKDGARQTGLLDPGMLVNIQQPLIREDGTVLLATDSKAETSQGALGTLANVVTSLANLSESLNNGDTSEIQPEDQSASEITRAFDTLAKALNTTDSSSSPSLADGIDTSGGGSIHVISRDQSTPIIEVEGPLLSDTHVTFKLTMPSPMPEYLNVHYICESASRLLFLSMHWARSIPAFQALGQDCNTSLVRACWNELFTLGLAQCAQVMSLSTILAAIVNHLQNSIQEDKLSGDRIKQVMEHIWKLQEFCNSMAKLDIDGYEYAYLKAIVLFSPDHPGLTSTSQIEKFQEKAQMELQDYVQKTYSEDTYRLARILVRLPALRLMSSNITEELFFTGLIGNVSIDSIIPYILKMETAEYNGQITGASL
Method: After 24 h, cells were harvested for Luciferase activity. The relative luciferase activity was calculated while setting pCMX-TR4 in vehicle control as 1. (FIG. 6B) Protease protective peptide mapping were analyzed in liganded-PPARγ and TR4. […] The reaction was stopped by adding 2×SDS-sample buffer. The protease digestion pattern was resolved by gel electrophoresis in 12.5% (for PPARγ), and 16% (for TR4) SDS-PAGE. […] After 24 h, cells were harvested for Luciferase activity. The relative luciferase activity was calculated while setting pCMX-TR4 in vehicle control as 1.
Mouse macrophage RAW 264.7 cells, obtained from ATCC, were cultured in DMEM medium supplemented with 8% fetal bovine serum and 100 µg/ml penicillin-streptomycin and maintained on the petri-dishes. […] After 24 h, cells were harvested for luciferase assays.

TR4 [2] = molecular target: T2, TR4; test: Limited proteolysis (protease protective peptide mapping) of [35S]-TR4; type: binding; set-up: pCMX-TR4 plasmids consist of the full length human TR4 gene subcloned into pCMX vector; expressed in transfected cells; host or cells: H1299; settings: incubated 15 min, trypsin 0.25 and 2.5 g/ml 10 min; compared to DMSO control
Method: (FIG. 6A) PUFAs metabolites induced PPAR- and TR4-mediated CD36 activity. […] After 24 h, cells were harvested for Luciferase activity. The relative luciferase activity was calculated while setting pCMX-TR4 in vehicle control as 1. (FIG. 6B) Protease protective peptide mapping were analyzed in liganded-PPARγ and TR4. […] The reaction was stopped by adding 2×SDS-sample buffer. The protease digestion pattern was resolved by gel electrophoresis in 12.5% (for PPARγ), and 16% (for TR4) SDS-PAGE. […] After 24 h, cells were harvested for Luciferase activity. The relative luciferase activity was calculated while setting pCMX-TR4 in vehicle control as 1.

[3] = 1 and 20 µM in DMSO, compared with AA and EPA
[4] = 1, 10, 50, 100 and 250 µM in BSA

Compound: CCCCCC(O)/C=C/C=C\CCCCCCCC(=O)O (centres unmarked) [13-HODE]
- PPAR/RXR-mediated CD36 expression (CD36-luc luciferase activity) (PPARγ/RXR; [3]): much better induction
- TR4-mediated CD36 expression (CD36-luc luciferase activity) (TR4 [1]; [3]): much better induction
- Protease digestion pattern of ligand-bound TR4 (TR4 [2]): several changed proteolysis resisting fragments

Compound: CCCCC/C=C\C/C=C\C/C=C\C/C=C\CCCC(=O)O [AA, arachidonic acid]
- PPAR/RXR-mediated CD36 expression (CD36-luc luciferase activity) (PPARγ/RXR; [4]): mildly induced
- TR4-mediated CD36 expression (CD36-luc luciferase activity) (TR4 [1]; [4]): mildly induced

Compound: CCCCC[C@H](O)/C=C/C=C\C/C=C\C/C=C\CCCC(=O)O [15-HETE]
- PPAR/RXR-mediated CD36 expression (CD36-luc luciferase activity) (PPARγ/RXR; [3]): much better induction
- TR4-mediated CD36 expression (CD36-luc luciferase activity) (TR4 [1]; [3]): much better induction
- Protease digestion pattern of ligand-bound TR4 (TR4 [2]): several changed proteolysis resisting fragments

— patent US8524455B2, “Methods and compositions related to TR4 ligand” (University of Rochester, priority 2009, dated 2013)
